US20220175859A1, “Tetraselmis Extract” (SYMRISE AG, priority 2018, published 2022)

Legend:
Format in all cases: cell-based
human sebaceous glands [1] = experiment: Total lipid content of micro-dissected ex vivo human sebaceous glands (organ culture); details: extract 0.3 ppm, Capsaicin 5 μM (=1.5 ppm), lipids normalized to proteins
Experimental: Organ culture of human sebaceous glands micro-dissected from human skin explants was performed to evaluate the modulatory activity of Tetraselmis suecica extract prepared according to the description given in Example 1 on the sebum level. The extract is employed in the dried form. After removal of the epidermis of the full thickness skin sample, the sebaceous glands were carefully removed using micro-scissors and scalpel. The micro-dissected sebaceous glands were then pooled in groups of 8 and cultured up to day 6 in a 24 well plate immersed in 500 μl of modified Williams' E medium. After 24 hours of acclimation the culture medium was changed and substituted with the medium containing the extract to be tested. The medium was renewed at day 3 and 5 of culture. At day 6 the glands were collected and used for the quantification of lipids and proteins. […] To do so, each sebaceous glands group was homogenized in 100 μl of isopropyl alcohol to extract lipids and let the proteins undissolved. After centrifugation the supernatant containing the extracted sebum was collected and analyzed. The remaining pellet was dried using a vacuum dry evaporator and then minced in presence of 50 μl of protein lysis buffer. After an appropriate incubation time, this extractive mixture was centrifuged, and the supernatant was collected and analyzed. The lipids dissolved in isopropyl alcohol and the proteins dissolved in the lysis buffer were quantified by infrared spectroscopy using a Direct Detect IR Spectrometer (Millipore). The total lipid amount was obtained by normalizing the quantified lipids upon the quantified proteins (i.e. mg of lipids/mg of proteins). The amounts of normalized lipids, i.e. the sebum produced by each group of sebaceous glands, obtained from the treated groups was compared to that of the untreated control group and the modulatory activity was calculated in percentage. […] For statistical analysis, differences among groups were evaluated by one-way anova with permutation test followed by Dunnett's permutation test. […]

human sebaceous glands [2] = experiment: Viability test (resazurin) of micro-dissected human sebaceous glands
Experimental: To better understand the response to the extract, a viability test was performed in parallel at day 1 and day 6 of organ culture. Resazurin was added to the wells (1:11) and let incubate for 2 hours. At the end of the incubation an aliquot of the medium was read with a fluorometer (excitation: 560 nm, emission: 590 nm). The medium was then replaced with normal medium for 2 hours in order to eliminate residual resazurin. After this the medium was replaced again with medium containing the test samples. The viability in each well was measured as the difference in percentage between day 6 and day 1.
The same experimental set-up as described in Example 3 was used to evaluate the combination of Tetraselmis suecica extract and niacinamide for synergistic activity.

human sebaceous glands [3] = experiment: Synergistic effect of Tetraselmis suecica extract and niacinamide on total lipid content of ex vivo human sebaceous glands (Kull's equation); details: Donor 1 (Example 4); 0.3 ppm extract, 100 ppm niacinamide, or 0.15 ppm extract + 50 ppm niacinamide
Source text: Kull's equation for calculation of the synergism index SI was used:
A=lipid reduction by Tetraselmis suecica extract at concentration x B=lipid reduction by niacinamide at concentration y C=lipid reduction by the combination of Tetraselmis suecica extract at concentration x/2 and niacinamide at concentration y/2 D=Factor for Tetraselmis suecica extract=>0.5 (due to half concentration tested in the combination) E=Factor for niacinamide=>0.5 (due to half concentration tested in the combination) A SI=1 is obtained for additive activity of the two combined components, whereas a SI<1 proves antagonistic activity (observed efficacy is lower than additive) and SI>1 proves synergistic activity (observed efficacy is higher than additive).

| Structure (SMILES) | Reduction of lipids at day 6 versus untreated (human sebaceous glands [1]; Donor 1) [%] | Reduction of lipids at day 6 versus untreated (human sebaceous glands [1]; Donor 2) [%] | Reduction of lipids at day 6 versus untreated (human sebaceous glands [1]; Donor 3) [%] | Viability (human sebaceous glands [2]; Donor 1, day 6 versus day 1, extract 0.3 ppm, Capsaicin 5 μM (1.5 ppm), untreated 93) [%] | Viability (human sebaceous glands [2]; Donor 2, day 6 versus day 1, extract 0.3 ppm, Capsaicin 5 μM (1.5 ppm), untreated 100) [%] | Viability (human sebaceous glands [2]; Donor 3, day 6 versus day 1, extract 0.3 ppm, Capsaicin 5 μM (1.5 ppm), untreated 81) [%] | Viability (human sebaceous glands [2]; Donor 1 (Example 4), 0.3 ppm extract, 100 ppm niacinamide, or 0.15 ppm extract + 50 ppm niacinamide, untreated 81) [%] | Reduction of lipids at day 6 versus untreated (human sebaceous glands [3]) [%] |
| --- | --- | --- | --- | --- | --- | --- | --- | --- |
| COc1cc(CNC(=O)CCCC/C=C/C(C)C)ccc1O [Capsaicin] | 11 | 28 | 14 | 92 | 99 | 85 |  |  |
| NC(=O)c1cccnc1 [niacinamide, Niacinamide] |  |  |  |  |  |  | 78 | 6 |
